# Entries after “also recorded” stand apart in the source; their conditions may differ.
# How the values were obtained:
# [1] = tested on: AS283 cells; experiment: Cell Culture Study II: MTX cytotoxicity, CellTiter-Glo; assay type: cell-based, human; conditions: TK-112690 1, 10, 100 μM with MTX 0.01-100 μM, 72 hours
# Procedure: In this study, AS283 cells were grown in RPMI-1640 supplemented with L-glutamine dipeptide, sodium pyruvate, HEPES, and 10% FBS. AS283 cells were used to seed three 96-well plates with 10,000 cells/well in a total volume of 50 μL. Medium alone wells were seeded 100 μL medium. Plates were incubated overnight. The following day, 25 μL of the TK-112690 and MTX stock solutions were added to the appropriate wells. TK-112690 was added first, followed by MTX in all wells. 25 μL of vehicle was added to TK-112690 alone wells. 25 μL of vehicle and 25 μL medium were added to vehicle control wells, and 50 μL medium was added to cell control wells. Cell viability was measured using CellTiter-Glo and DOX (10 μM) was used as a reference standard. The plates were incubated at 37° C., 5% CO2 for 72 hours then removed from the incubator and placed on the bench at room temperature for 30 min. The plates were not stacked or shaken. […] Luminescence was recorded on TriLux. […]
# AS283 cells were grown in RPMI-1640 supplemented with L-glutamine dipeptide, sodium pyruvate, HEPES, and 10% FBS. […] Cell viability was measured using CellTiter-Glo and DOX (10 μM) was used as a reference standard.
# The plates were incubated at 37° C., 5% CO2 for 72 hours then removed from the incubator and placed on the bench at room temperature for 30 min. […] Luminescence was recorded on TriLux.
# [2] = Mouse Study VI: plasma uridine and TK-112690 after TK-112690 treatment; assay type: in vivo, CD-1 mouse; conditions: 0, 15, 30, 60 and 120 mg/kg ip
# Procedure: In this study, CD-1 female mice were injected ip with 120 mg/kg TK-112690 and plasma from the animals analyzed by HPLC using UV detection for TK-112690 and uridine. Concentrations of uridine and TK-112690 in plasma samples collected 0.08, 0.50, 1, 2, 4 or 12 hours post TK-112690 injection were determined by HPLC using UV detection. […] An increase in plasma uridine was noted almost immediately following administration of TK-112690. At 0.5 hour post TK-112690 dose, a 100 μg/mL plasma concentration TK-112690 is associated with a plasma uridine concentration of approximately 2 μg/mL of uridine (baseline uridine concentration approximately 0.5 μg/mL). […]
# Plasma uridine concentration was determined by HPLC using UV detectionafter animals were treated with TK-112690 as follows. […] CD-1 female mice were injected ip with a range of TK-112690 doses (0, 15, 30, 60 and 120 mg/kg) and plasma from the animals analyzed for TK-112690 uridine concentrations expected to be elevated through UPase inhibition by TK-112690. Plasma uridine concentrations were determined from plasma samples collected 0.08, 0.50, 1, 2, 4 or 12 hours post TK-112690 injection. […]
# The micromolar concentration of plasma uridine was determined by linear equation (y=mx+b) generated from uridine and 5-FU calibration curve. The y value is calculated by taking ratio of peak heights (mm) of uridine and 5-FU. […]
smiles,measurement,setting,value
"Cc1cn2c(nc1=O)O[C@H]1[C@H](O)[C@@H](CO)O[C@H]12 [TK-112690, 2,2′-anhydro-5-methyluridine]",effect on antiproliferative activity (cytotoxicity) of MTX,[1],did not diminish the cytotoxicity of MTX; also recorded: not altered
same,plasma concentrations of TK-112690 vs dose,[2],increased with increasing doses
